Values of other authors, collected in patent US6552014B2, “Methods of inhibiting platelet activation with selective serotonin reuptake inhibitors” (HeartDrug Research, L.L.C., priority 1999, dated 2003).
Structures can show the parent of a compound that is named as a salt.

What was measured:
Conditions in all cases: cited from earlier work
[1] = tested on: serotonin 5-HT3 receptors
serotonin 5-HT2 receptor = tested on: serotonin 5-HT2 receptor
[2] = tested on: central 2 alpha-adrenergic autoreceptors, and heteroreceptors

| Compound | antagonism of serotonin 5-HT3 receptors, in words [1] | antagonism of serotonin 5-HT2 receptor, in words (serotonin 5-HT2 receptor) | antagonism of central 2 alpha-adrenergic autoreceptors and heteroreceptors, in words [2] |
| --- | --- | --- | --- |
| CN1CCN2c3ncccc3Cc3ccccc3C2C1 (stereo not shown) [Mirtazapine] | antagonist | antagonist | potent antagonist |
| CCc1nn(CCCN2CCN(c3cccc(Cl)c3)CC2)c(=O)n1CCOc1ccccc1 [Nefazodone, 2-[3-[4-(3-chlorophenyl)-1-piperazinyl]propyl]-5-ether-2,4-dihydro-4-(2-phenoxyethyl)-3H-1,2,4-triazol-3-one monohydrochloride] | – | potent serotonin 5-HT2 receptor antagonist | – |
